Key:
Format in all cases: cell-based, human
[1] = test system: caspase 3/7 activity in FHC cells; experiment: Caspase-Glo 3/7 activity assay in FHC; conditions: 16 h, 1.25-10 μM
Experimental: (§1) The cells were plated in white-walled 96-well-plates and then they were cultured at 37°C for 48 h. Serum-free culture medium containing the appropriate concentration of different agents was added to the cells for the indicated period of time. Caspase-Glo 3/7 reagent (Promega, Madison, WI) was added to each well and luminescence was detected as directed by the manufacturer. The Caspase-Glo 3/7 kit measures the activity of the executioner caspases 3 and 7 using the luminogenic substrate (Z-DEVD-aminoluciferin) as substrate.

[2] = test system: PERK, eIF2a, CHOP10, PARP, caspase 3 in FHC cells; experiment: Western blot of ER stress and apoptosis proteins in FHC; conditions: 10 μM, 1-16 h
Experimental: Western blot analysis was conducted as described previously ([35]). Briefly, the cells were cultured in 100 mm dishes for 48 h before treatment. The cells were then treated as described in the figure legends. For vehicle-treated samples, DMSO was added to serum-free culture medium at a maximum concentration of 0.1% (v/v). After experimentation, the cells were washed twice with phosphate buffer saline (PBS) and then 100 μl of Triton lysis buffer [25 mM HEPES, 100 mM NaCl, 1 mM EDTA, 10% (v/v) glycerol, 1% (v/v) Triton X-100], containing protease and […] inhibitors, was added to the cells. Protein concentrations were determined by using BCA reagents (Thermo Fisher Scientific Inc., IL). Equal concentrations of each sample were loaded onto SDS–PAGE gels and protein bands transferred to nitrocellulose membranes using semi-dry transfer cells (TRANS-BLOTSD; Bio-Rad Laboratories, Hercules, CA). The membranes were incubated for 2 h at room temperature in Odyssey blocking buffer (LI-COR Biosciences, Lincoln, NE). Membranes were then incubated overnight at 4C with primary antibody followed by 1 h of incubation at room temperature with secondary antibody. […] Protein bands were visualized using Odyssey® CLx digital fluorescence imaging system (LI-COR, Lincoln, Nebraska). Band intensities were quantified by using ImageJ software ([36]).

[3] = test system: P-PERK, P-eIF2α, CHOP10, PARP, caspase-3, ferritin in HT29 cells; experiment: Western blot of ER stress and apoptosis proteins in HT29
Experimental: Western blot analysis was conducted as described previously ([35]). Briefly, the cells were cultured in 100 mm dishes for 48 h before treatment. The cells were then treated as described in the figure legends. For vehicle-treated samples, DMSO was added to serum-free culture medium at a maximum concentration of 0.1% (v/v). After experimentation, the cells were washed twice with phosphate buffer saline (PBS) and then 100 μl of Triton lysis buffer [25 mM HEPES, 100 mM NaCl, 1 mM EDTA, 10% (v/v) glycerol, 1% (v/v) Triton X-100], containing protease and […] inhibitors, was added to the cells. Protein concentrations were determined by using BCA reagents (Thermo Fisher Scientific Inc., IL). Equal concentrations of each sample were loaded onto SDS–PAGE gels and protein bands transferred to nitrocellulose membranes using semi-dry transfer cells (TRANS-BLOTSD; Bio-Rad Laboratories, Hercules, CA). The membranes were incubated for 2 h at room temperature in Odyssey blocking buffer (LI-COR Biosciences, Lincoln, NE). Membranes were then incubated overnight at 4C with primary antibody followed by 1 h of incubation at room temperature with secondary antibody. All primary antibodies were used at a dilution of 1:1,000 except anti-GAPDH and anti-CHOP10 antibodies which were used at 1:10,000 and 1:500 dilutions, respectively. All secondary antibodies were used at a dilution of 1:15,000. Protein bands were visualized using Odyssey® CLx digital fluorescence imaging system (LI-COR, Lincoln, Nebraska). Band intensities were quantified by using ImageJ software ([36]).

HCT116 cells = experiment: TUNEL assay in HCT116; conditions: 5 or 10 μM, 16 h
Experimental: HT29, HCT116, and FHC cells were cultured in chamber slides and treated with 5 μM NSC735847, 10 μM NSC735847, or vehicle (0.1% DMSO). The cells were then washed with PBS and fixed in 4% paraformaldehyde before detection of double stranded DNA breaks that are characteristic of apoptosis. Terminal deoxynucleotidyl transferase dUTP nick end labeling (TUNEL) assays were performed as described by the manufacturer (in situ Cell Death Detection Kit; Roche; Indianapolis, IN). Briefly, fixed cells were incubated in permeabilization solution (0.1% Triton X-100 in 0.1% sodium citrate) for 2 min on ice. The slides were rinsed twice with PBS, 50 μL TUNEL reaction mixture was added, and then the samples were incubated for 1 h at 37°C in the dark. The slides were overlayed with antifade mounting medium containing DAPI and then visualized using a Zeiss LSM 700 confocal microscope system (Carl Zeiss Microscopy, LLC, White Plains, NY).

[4] = test system: caspase 3/7 activity in HCT-116 cells; experiment: Caspase-Glo 3/7 activity assay in HCT116; conditions: 16 h, 1.25-10 μM
Experimental: as §1

Q: Which results are given for CC1CCC2C(C)C(OCC(COC3OC4OC5(C)CCC6C(C)CCC(C3C)C46OO5)=NO)OC3OC4(C)CCC1C32OO4 (stereo not drawn) [compound (3)]?
A: caspase 3/7 activity in FHC [1]: not in FHC cells; activation of PERK, eIF2a, CHOP10, PARP, caspase 3 in FHC [2]: did not increase the activation; CHOP10 expression ([3]; HT29, 10 μM, 6 and 8 h): marked increase; cleavage of PARP ([3]; HT29, 10 μM, 8 and 16 h): stimulated the cleavage; cleavage of caspase-3 ([3]; HT29, 10 μM, 8 and 16 h): stimulated the cleavage; phosphorylation of PERK, increase compared to vehicle-treated cells ([3]; HT-29, 10 μM, 1 and 2 h): more than 7 fold; phosphorylation of eIF2α, increase compared to vehicle-treated cells ([3]; HT-29, 10 μM, 1 and 2 h): more than 7 fold; TUNEL positive cells in HCT-116 (HCT116 cells): increased the quantity of TUNEL positive cells; caspase 3/7 activity in HCT-116 [4]: significantly increased

Source: PMC7313430, “Heme-Dependent ER Stress Apoptosis: A Mechanism for the Selective Toxicity of the Dihydroartemisinin, NSC735847, in Colorectal Cancer Cells” (Frontiers in Oncology, 2020)
